Common to all, as to assay type: cell-based
One assay deals with Human CD4+ T cells. Put plainly: CD4+ T cell chemotaxis assay towards CCL20. The following applies: relative -LogIC50, 150 ng/ml CCL20, Transwell, 3 h. The text has this: Human CD4+ T cells were isolated from buffy coats of healthy donors using a CD4+ T Cell Isolation Kit (Miltenyi Biotec130-096-533). Isolated T cells were stimulated overnight with anti-CD3 and anti-CD28 antibodies (Biolegend 300314/302934) in growth medium (RPMI1640, 10% heat-inactivated FBS, 1× pen/strep (Gibco 15140)). For the chemotaxis assay, Corning Transwell plates were used with a pore size of 5 μm (Corning 3388). T cells were counted and diluted to 6*10^6 cells/ml in chemotaxis medium (RPMI1640, 1% BSA, pen/strep). Compounds were four-fold serially diluted in DMSO. Further dilutions were made in chemotaxis medium. Cells were incubated with test compounds for 30 min at 37° C. prior to initiation of the assay (3*10^6 cells/ml). Final DMSO concentration in the assay was 0.2%. Wells of the Transwell plates were filled with 200 μl chemotaxis medium containing 150 ng/ml CCL20 (R&D systems 360-MP). 50 μl of the cell/compound suspension was added to the inserts of the Transwell plates (150,000 cells/insert). The Transwell plates were placed in an incubator at 37° C., 5% CO2 for 3 h. After 3 h, the number of migrated cells was quantified using CellTiter Glo (Promega). Percentage inhibition values were calculated based on the low and high signal obtained with 0.2% DMSO in chemotaxis medium without and with CCL20, respectively. The relative −LogIC50 was determined with GraphPad Prism 9 using a four-parameter dose-response model.

The target of assay [1] is T1, human CCR6 (Homo sapiens, UniProt P51684).
T1 sequence (P51684 1-374): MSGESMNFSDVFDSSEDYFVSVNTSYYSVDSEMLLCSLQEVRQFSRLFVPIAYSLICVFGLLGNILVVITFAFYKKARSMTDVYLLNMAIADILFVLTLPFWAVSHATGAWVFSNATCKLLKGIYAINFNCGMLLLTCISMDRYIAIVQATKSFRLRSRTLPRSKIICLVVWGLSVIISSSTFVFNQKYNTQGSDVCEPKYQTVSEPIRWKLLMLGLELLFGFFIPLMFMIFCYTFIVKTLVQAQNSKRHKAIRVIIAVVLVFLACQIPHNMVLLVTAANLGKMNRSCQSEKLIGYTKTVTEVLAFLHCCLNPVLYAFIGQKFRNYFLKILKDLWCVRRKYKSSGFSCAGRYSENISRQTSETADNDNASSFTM
As to the kind of experiment: Human CCR6-Cre reporter assay. The following applies: relative -LogIC50; transfected 293 FT cells, 6 μM Forskolin, 6 nM CCL20, luciferase readout, 5h. On the set-up: The second construct contained the open reading frame of human CCR6 in the pUNO1 backbone; host or cells: 293 FT cells. On the procedure:
293 FT cells were transfected with 2 constructs using TransIT-293 (Mirus). The first construct (pGL4.29, Promega) expressed the luciferase reporter gene luc2P in response to the binding of cAMP-induced CREB to the CRE element in its promoter. The second construct contained the open reading frame of human CCR6 in the pUNO1 backbone under the control of an enhanced CMV promoter (In VivoGen). 48h after transfection, cells were harvested and diluted to 750,000 cells/ml in culture medium (DMEM, 10% FBS, 1× pen/strep (Gibco 15140)). Compounds were 2.5-fold serially diluted in DMSO. Further dilutions were made in assay medium (DMEM, 10% FBS, 1× pen/strep, 6 μM Forskolin, 6 nM CCL20). 4 μl of the compound solution was added to a white MW384 plate, followed by 20 μl of the cell suspension. Final DMSO concentration in the assay was 0.1%. The MW384 plate was placed in an incubator at 37° C., 5% CO2 for 5h. Luciferase activity was determined by addition of 24 μl of a 2.5× diluted BriteLite luciferase solution (Perkin Elmer), followed by luminescence measurement using a VICTOR Plate reader (Perkin Elmer). […] The relative-LogIC50 was determined with GraphPad Prism 9 using a four-parameter dose-response model.

Assay [2] addresses T1, human CCR6. Put plainly: CHO-K1 CCR6 chemotaxis assay towards CCL20. The note with it: relative -LogIC50; CHO-K1 cells overexpressing human CCR6, 100 ng/ml CCL20, Transwell, 4 h. The text has this: Cells overexpressing human CCR6 were used in the chemotaxis assay (DiscoverX, CAMP Hunter™ CHO-K1 CCR6 Gi Cell Line). Growth medium of these cells consisted of DMEM/F12, non-essential Amino acids (1×NEAA, Gibco 11140050), 10% FBS and 1× pen/strep (Gibco 15140). For the chemotaxis assay, Corning Transwell plates were used with a pore size of 8 μm (Corning 351164). Cells were harvested using trypsin and diluted to 4*10^6 cells/ml in chemotaxis medium (DMEM, 0.25% BSA, pen/strep). Compounds were four-fold serially diluted in DMSO. Further dilutions were made in chemotaxis medium. Cells were incubated with test compounds for 30 min at 37° C. prior to initiation of the assay (2*10^6 cells/ml). Final DMSO concentration in the assay was 0.2%. Wells of the Transwell plates were filled with 200 μl chemotaxis medium containing 100 ng/ml CCL20 (R&D systems 360-MP). 50 μl of the cell/compound suspension was added to the inserts of the Transwell plates (100,000 cells/insert). The Transwell plates were placed in an incubator at 37° C., 5% CO2 for 4 h. After 4 h, the number of migrated cells was quantified using CellTiter Glo (Promega). Percentage inhibition values were calculated based on the low and high signal obtained with 0.2% DMSO in chemotaxis medium without and with CCL20, respectively. The relative-LogIC50 was determined with GraphPad Prism 9 using a four-parameter dose-response model.

Molecules are shown by their SMILES.

For `Cc1n[nH]c2ncc(-c3ccc(S(=O)(=O)[C@H]4CC[C@H](Nc5ccc(C6(C(F)(F)F)CC6)cc5)CC4)cc3)cc12` [Example 22, N-[(trans)-4-(4-{3-methyl-1H-pyrazolo[3,4-b]pyridin-5-yl}benzenesulfonyl)cyclohexyl]-4-[1-(trifluoromethyl)cyclopropyl]aniline], the IC50 in the assay on Human CD4+ T cells was 2.51 nM; on human CCR6 [1] it was 100 nM. `CC(C)c1cnc2ccc(-c3ccc(S(=O)(=O)[C@H]4CC[C@H](Nc5ccc(C6(C(F)(F)F)CC6)cc5)CC4)cc3)cn12` [Example 20, N-[trans-4-{4-[3-(propan-2-yl)imidazo[1,2-a]pyridin-6-yl]benzenesulfonyl}cyclohexyl]-4-[1-(trifluoromethyl)cyclopropyl]aniline]: the IC50 at human CCR6 [2] is 3.98 nM; on human CCR6 [1], 100 nM.

Consider `Cc1cc(-c2ccc(S(=O)(=O)N3CCC(Nc4ccc(C5(C#N)CC5)cn4)CC3)cc2)cn2c(C(C)C)nnc12` [Example 32, 1-{6-[(1-{4-[8-methyl-3-(propan-2-yl)-[1,2,4]triazolo[4,3-a]pyridin-6-yl]benzenesulfonyl}piperidin-4-yl)amino]pyridin-3-yl}cyclopropane-1-carbonitrile], for which the results for the 50% inhibitory concentration (IC50) in the assay with Human CD4+ T cells and against human CCR6 [1] were 126 nM and 200 nM, respectively. In the same order, the values of `O=c1[nH]nc2ccc(-c3ccc(S(=O)(=O)N4CCC(Nc5ccc(C6(C(F)(F)F)CC6)cc5)CC4)cc3)cn12` [Example 43, 6-(4-{[4-({4-[1-(trifluoromethyl)cyclopropyl]phenyl}amino)piperidin-1-yl]sulfonyl}phenyl)-2H,3H-[1,2,4]triazolo[4,3-a]pyridin-3-one] are 12.6 nM and 100 nM. Regarding `NC(=O)c1ccc(-c2ccc(S(=O)(=O)N3CCC(Nc4ccc(C5(C(F)(F)F)CC5)cc4)CC3)cc2)cc1` [Example 7, 4′-{[4-({4-[1-(trifluoromethyl)cyclopropyl]phenyl}Amino)piperidin-1-yl]sulfonyl}-[1,1′-biphenyl]-4-carboxamide], the IC50 is 126 nM against human CCR6 [2] and 200 nM against human CCR6 [1]. As to `CNC(=O)c1ccc(-c2ccc(S(=O)(=O)N3CCC(Nc4ccc(C5(C(F)(F)F)CC5)cc4)CC3)cc2)cn1` [Example 6, N-methyl-5-(4-{[4-({4-[1-(trifluoromethyl)cyclopropyl]phenyl}Amino)piperidin-1-yl]sulfonyl}phenyl)pyridine-2-carboxamide], the IC50 on human CCR6 [2] and at human CCR6 [1] was 126 nM throughout. `Cc1c[nH]c2ncc(-c3ccc(S(=O)(=O)[C@H]4CC[C@H](Nc5ccc(C6(C(F)(F)F)CC6)cc5)CC4)cc3)cc12` [Example 21, N-[(trans)-4-(4-{3-methyl-1H-pyrrolo[2,3-b]pyridin-5-yl}benzenesulfonyl)cyclohexyl]-4-[1-(trifluoromethyl)cyclopropyl]aniline]: the figures for the IC50 in the assay on Human CD4+ T cells and against human CCR6 [1] were 1.58 nM and 63.1 nM, respectively. Consider `Cc1nnc2ccc(-c3ccc(S(=O)(=O)N4CCC(Nc5ccc(C6(C(F)(F)F)CC6)cn5)CC4)cc3)cn12` [Example 47, N-[1-(4-{3-methyl-[1,2,4]triazolo[4,3-a]pyridin-6-yl}benzenesulfonyl)piperidin-4-yl]-5-[1-(trifluoromethyl)cyclopropyl]pyridin-2-amine], for which 15.8 nM corresponded to half-maximal inhibition with Human CD4+ T cells (IC50). On to `N#CC1(c2ccc(NC3CCN(S(=O)(=O)c4ccc(-c5ccc6n[nH]c(=O)n6c5)cc4)CC3)nc2)CC1` [Example 35, 1-(6-{[1-(4-{3-oxo-2H,3H-[1,2,4]triazolo[4,3-a]pyridin-6-yl}benzenesulfonyl)piperidin-4-yl]amino}pyridin-3-yl)cyclopropane-1-carbonitrile], for which the concentration for half-maximal inhibition (IC50) is 1580 nM in the assay with Human CD4+ T cells and 398 nM against human CCR6 [1]. The like results for `CC(C)c1nnc2ccc(-c3ccc(S(=O)(=O)N4CCC(Nc5ccc(C6(C(F)(F)F)CC6)cn5)CC4)cc3)cn12` [Example 36, N-(1-{4-[3-(propan-2-yl)-[1,2,4]triazolo[4,3-a]pyridin-6-yl]benzenesulfonyl}piperidin-4-yl)-5-[1-(trifluoromethyl)cyclopropyl]pyridin-2-amine] were, in that order, 3.16 nM and 31.6 nM. The like results for `CC(C)c1nnc2cnc(-c3ccc(S(=O)(=O)N4CCC(Nc5ccc(C6(C(F)(F)F)CC6)cc5)CC4)cc3)cn12` [Example 41, 1-{4-[3-(propan-2-yl)-[1,2,4]triazolo[4,3-a]pyrazin-6-yl]benzenesulfonyl}-N-{4-[1-(trifluoromethyl)cyclopropyl]phenyl}piperidin-4-amine] were, in that order, 3.98 nM and 63.1 nM. The like results for `CC(C)c1nnc2ccc(-c3ccc(S(=O)(=O)[C@H]4CC[C@H](Nc5ccc(C6(C#N)CC6)cn5)CC4)cc3)cn12` [Example 30, 1-(6-{[(trans)-4-{4-[3-(propan-2-yl)-[1,2,4]triazolo[4,3-a]pyridin-6-yl]benzenesulfonyl}cyclohexyl]amino}pyridin-3-yl)cyclopropane-1-carbonitrile] were, in that order, 251 nM and 200 nM. Turning to `O=S(=O)(c1ccc(-c2ccc3nccn3c2)cc1)N1CCC(Nc2ccc(C3(C(F)(F)F)CC3)cn2)CC1` [Example 37, N-[1-(4-{imidazo[1,2-a]pyridin-6-yl}benzenesulfonyl)piperidin-4-yl]-5-[1-(trifluoromethyl)cyclopropyl]pyridin-2-amine], the 50% inhibitory concentration (IC50) was 5.01 nM in the assay with Human CD4+ T cells and 100 nM against human CCR6 [1]. `CC(C)c1nnc2ccc(-c3ccc(S(=O)(=O)N4CCC(Nc5ccc(C6(C#N)CC6)cn5)CC4)cc3)cn12` [Example 31, 1-{6-[(1-{4-[3-(propan-2-yl)-[1,2,4]triazolo[4,3-a]pyridin-6-yl]benzenesulfonyl}piperidin-4-yl)amino]pyridin-3-yl}cyclopropane-1-carbonitrile]: the IC50 with Human CD4+ T cells was 79.4 nM; against human CCR6 [1], 200 nM.

As for `Cc1nnc2ccc(-c3ccc(S(=O)(=O)N4CCC(Nc5ccc(C6(C(F)(F)F)CC6)cc5)CC4)cc3)cn12` [Example 42, 1-(4-{3-methyl-[1,2,4]triazolo[4,3-a]pyridin-6-yl}benzenesulfonyl)-N-{4-[1-(trifluoromethyl)cyclopropyl]phenyl}piperidin-4-amine], the IC50 is 6.31 nM in the assay on Human CD4+ T cells and 126 nM at human CCR6 [1].

These data come from patent publication US20260034125A1, “N-PHENYL-1-(PHENYLSULFONYL)PIPERIDIN-4-AMINE DERIVATIVES AS CCR6 INHIBITORS” (priority 2023, published 2026).
